According to article PMC7901654, “Bioisosteric Discovery of NPA101.3, a Second-Generation RET/VEGFR2 Inhibitor Optimized for Single-Agent Polypharmacology” (Journal of Medicinal Chemistry, 2020):

Key:
TT = assay: Cell growth curves, human cells; type: cell-based; conditions: MTC, RET C634W, read-out: IC50 (95% CI), growth inhibition
Experimental: (§1) The IC50 dose for all human RET-negative cells was >100.0 nM, confirming compound selectivity (Figure S8 and Table S4).
(§2) Nthy-ory-3-1 (10000 per well), TPC-1 (10000 per well), MZ-CRC-1 (100000 per well), TT (200000 per well), Lc-2/ad (100000 per well), BCPAP (10000 per well), 8505-C (10000 per well), PC-9 (10000 per well), A549 (10000 per well), CALU-1 (10000 per well), NIH3T3 RET/C634Y (10000 per well), and NIH3T3 HRAS/G12V (10000 per well) were seeded in six-well tissue culture plates. Cells were kept in 2% (TPC-1), 5% (Nthy-ori-3-1), or 10% (BCPAP, 8505-C, CALU-1, A549, PC-9, TT, MZ-CRC-1, and Lc-2/ad) fetal calf serum or in 2% (NIH3T3 RET/C634Y and HRAS/G12V) calf serum. Ba/F3 cells (200000 per well in 2 mL) were seeded in six-well tissue culture plates and kept in 10% fetal calf serum. The day after plating, different concentrations of the drug or vehicle were added to the medium and changed every 2–3 days. Cells were counted every day (Ba/F3), every 2 days (fibroblasts), or every 2–3 days (human cell lines). To compare cell growth, we performed an unpaired Student’s t test using the Instat software program (Graphpad Software Inc.). All P values were two-sided, and differences were considered to be statistically significant at P < 0.02. IC50 doses were calculated through a curve fitting analysis from last day of growth curves using the PRISM software program (Graphpad Software Inc.).
(§3) Supplementary Table S4: NPA101.3 growth inhibitory effect on human cells.
(§4) *MTC (medullary thyoroid carcinoma); PTC (papillary thyroid carcinoma); ATC
(§5) (anaplastic thyroid carcinoma); LADC (lung adenocarcinoma)

Lc-2/ad = assay: Cell growth curves, human cells; type: cell-based; conditions: LADC, CCDC6-RET, read-out: IC50 (95% CI), growth inhibition
Experimental: as §1, §2, §3, §4, §5

MZ-CRC-1 = assay: Cell growth curves, human cells; type: cell-based; conditions: MZ-CRC-1, MTC, RET M918T, read-out: IC50 (95% CI), growth inhibition
Experimental: as §1, §2, §3, §4, §5

[1] = Toxicity, plasma biochemical analysis; type: in vivo, mouse; conditions: 10 mg/kg/day oral, 7 days, mice
Experimental: In vivo target (RET and VEGFR2) inhibition was studied by treating animals grafted with NIH3T3 RET/C634Y cells at different doses (0.3, 1, or 3 mg/kg/day p.o.) of NPA101.3 for 2 days and then performing Western blot analysis on protein extracts. […] Then, to determine antitumorigenic activity and to better distinguish RET- and VEGFR2-mediated effects, we tested NPA101.3 in nude mice transplanted with NIH3T3 cells transformed by either RET/C634Y or HRAS/G12V. Before tumors appeared, animals were treated daily with NPA101.3 (1.0, 3.0, or 10.0 mg/kg/day) or left untreated. […] Still, VEGFR2 inhibition was detected also in RAS-driven tumors, an effect that might explain the, albeit reduced, effect of the drug on their growth (Figure S13). Importantly, as predicted, no trace of NPA101.3 demethyl metabolites was detected after 1 or 4 h from oral dosing in mice (Figure S14).
Patch-Clamp assay. The patch-clamp assay has been outsourced to Aptuit (Verona, Italy). […]
After thawing, cells were maintained in culture using minimum essential medium supplemented with 10% foetal bovine serum, 1% non-essential amino acids, 1% sodium pyruvate, 2mM L-glutamine, 1% pen-strep, 15μg/ml blasticidin and 100 μg/ml hygromycin. hERG channel expression induction was obtained by adding 10 μg/ml tetracycline 48 h before the experiment. […] Current amplitude was measured and […]

Question: For `CC(C)(C)c1cc(NC(=O)Cc2ccc(-n3cnc4cc(-c5ccc(S(C)(=O)=O)cc5)ccc43)cc2)no1` [NPA101.3], which IC50 (TT) is on record?
Answer: 2.19 nM

Question: And the IC50 (Lc-2/ad)?
Answer: 3.6 nM

Question: What about the IC50 (MZ-CRC-1) of the same compound?
Answer: 2.21 nM

Question: And the “standard blood markers of organ damage” value [1]?
Answer: no significant change
